Converted amounts (≈) assume the structure as drawn.
System: kinetic aqueous solubility, PBS pH 7.4, LC-UV/MS
Assay: Identifying a Potential Treatment of Ataxia-Telangiectasia: Solubility Profiling
Details: stronger effect = higher value
Text: Ataxia-telangiectasia (A-T) is a devastating and progressive disease for which, there is no cure. Although A-T is a multisystem disease, it is stereotyped characterized by its neurological symptoms such as truncal ataxia, due to cerebellar cortical degeneration of the Purkinje and granule cells. The underlying genetic cause of A-T is null mutations in the ATM (A-T mutated) gene. ATM is a nuclear serine/threonine kinase that functions as a master regulator of the cellular responses to double strand breaks (DSBs) in the DNA. Upon activation by DSBs, ATM phosphorylates a plethora of downstream targets, including KAP-1 on […]. KAP-1 phosphorylation occurs shortly in response to DSBs and mediates global chromatin relaxation, which facilitates DSB repair. The assay provider and the NCGC have developed assays to discover small molecules that compensate for the loss of ATM and have discovered a probe. The resulting probe is further characterized in several ADME assays. This bioassay provides profiling data on aqueous kinetic solubility (PBS @ pH 7.4) of one of the lead compounds developed in the ATM project. NIH Chemical Genomics Center [NCGC] NIH Molecular Libraries Probe Centers Network [MLPCN] MLPCN Grant: MH089030-01 Assay Submitter (PI): Wei Zheng and Yosef Shiloh
1. […] Concentration of the supernatant was determined by LC-UV or LC-MS/MS

Compound: CC(=O)c1c(O)c(C)c(O)c(Cc2c(O)c3c(c(C(=O)/C=C/c4ccccc4)c2O)OC(C)(C)C=C3)c1O
- solubility: 250 µM (≈ 129 µg/mL)

Reference: PubChem BioAssay AID504780 (National Center for Advancing Translational Sciences (NCATS), 2011)
